Test results as given in PMC11354745, “Discovery of Novel Amino Acids (Analogues)-Substituted Thiophene[3,2-d]pyrimidine Derivatives as Potent HIV-1 Non-Nucleoside Reverse Transcriptase Inhibitors: Design, Synthesis, and Biological Evaluation” (International Journal of Molecular Sciences, 2024).
Where two headings read alike, the source gives them in different places.

What was measured:
[1] = test system: HIV-1 wild-type (WT) strain (IIIB); experiment: Anti-HIV activity in MT-4 cells (MTT method), HIV-1 IIIB; format: cell-based; conditions: for EC50: Human immunodeficiency virus 1, IIIB, MT4, read-out: EC50 IIIB; for SI IIIB: selectivity index, ratio CC50/EC50, IIIB
Description: (§1) All the target compounds were first evaluated for their antiviral activity against HIV-1 wild-type (WT) strain (IIIB) and the double-mutant strain K103N+Y181C (RES056) in the MT-4 cell line, using the MTT method.
(§2) The antiviral potential and cytotoxic effects of the target compounds were assessed using the MTT assay in MT-4 cells, following established protocols. The HIV-1 (IIIB) strain, single mutant strains (L100I, K103N, Y181C, Y188L and E138K), double mutant strains (F227L + V106A and K103N + Y181C) and MT-4 cells were provided by the Rega Institute of Medicine at the University of Leuven, Belgium. These viral strains were propagated in MT-4 cells. […] The specific experimental procedures are detailed below.
(§3) Initially, concentrated solutions of the test compounds were prepared at 10-fold the final desired concentration and added to triplicate wells in 25 µL aliquots to assess their impacts on both mock and HIV-infected MT-4 cells. Using a Biomek 3000 robot, these were diluted in a 96-well flat-bottomed microplate by mixing with medium, creating a series of 5-fold steps down in concentration. Each test included control groups of untreated infected and mock-infected cells to establish baselines for comparison. […] These strains served to mimic both typical and resistant infections. Additionally, mock-infected wells received an equal volume of culture medium to assess the compounds’ impacts on uninfected cells, thereby determining cytotoxicity. MT-4 cells in the exponential growth phase were pelleted by centrifugation at 1000 rpm for 5 min, after which the supernatant was removed. The cells were resuspended to a density of 6 × 10^5 cells/mL, and 50 µL of this suspension was added to each well. Post-infection, on the fifth day, cell viability in both mock and infected conditions was measured via the MTT assay using a spectrophotometer.

[2] = test system: HIV-1 double-mutant strain K103N+Y181C (RES056); experiment: microbe, parasite or virus in culture; format: cell-based; conditions: for EC50: Human immunodeficiency virus 1, MT4, read-out: EC50 RES056; for SI RES056: selectivity index, ratio CC50/EC50, RES056
Description: as §1, §2, §3

[3] = Cytotoxicity in mock-infected MT-4 cells (MTT method); format: cell-based; conditions: human
Description: (§4) The antiviral potential and cytotoxic effects of the target compounds were assessed using the MTT assay in MT-4 cells, following established protocols. The HIV-1 (IIIB) strain, single mutant strains (L100I, K103N, Y181C, Y188L and E138K), double mutant strains (F227L + V106A and K103N + Y181C) and MT-4 cells were provided by the Rega Institute of Medicine at the University of Leuven, Belgium. These viral strains were propagated in MT-4 cells. The MT-4 cells were cultured in RPMI-1640 medium supplemented with 20 mM HEPES buffer (Life Technologies, Grand Island, NY, USA), 10% (v/v) heat-inactivated fetal calf serum (FCS), 2 mM L-glutamine, 0.1% sodium bicarbonate, and 20 μg/mL gentamicin. Cultures were maintained at 37 °C in a 5% CO2 atmosphere. The specific experimental procedures are detailed below.
(§5) Initially, concentrated solutions of the test compounds were prepared at 10-fold the final desired concentration and added to triplicate wells in 25 µL aliquots to assess their impacts on both mock and HIV-infected MT-4 cells. Using a Biomek 3000 robot, these were diluted in a 96-well flat-bottomed microplate by mixing with medium, creating a series of 5-fold steps down in concentration. Each test included control groups of untreated infected and mock-infected cells to establish baselines for comparison. We introduced HIV-1 strains, both wild-type (IIIB) and drug-resistant variants harboring mutations L100I, K103N, Y181C, Y188L, E138K and F227L + V106A and the double mutant K103N + Y181C (RES056), at concentrations of 100–300 CCID50, into their respective wells. These strains served to mimic both typical and resistant infections. Additionally, mock-infected wells received an equal volume of culture medium to assess the compounds’ impacts on uninfected cells, thereby determining cytotoxicity. MT-4 cells in the exponential growth phase were pelleted by centrifugation at 1000 rpm for 5 min, after which the supernatant was removed. The cells were resuspended to a density of 6 × 10^5 cells/mL, and 50 µL of this suspension was added to each well. Post-infection, on the fifth day, cell viability in both mock and infected conditions was measured via the MTT assay using a spectrophotometer. The CC50 was identified as the concentration of the compound that caused a 50% reduction in the viability of the mock-infected cells, indicating cytotoxicity. Conversely, the EC50 represented the concentration that provided 50% protection against viral cytopathic effects in infected cells, signifying antiviral potency.

[4] = test system: HIV-1 L100I mutant strain; experiment: Anti-HIV activity in MT-4 cells (MTT method), L100I; format: cell-based; conditions: Human immunodeficiency virus 1, MT4, read-out: EC50 L100I
Text: (§6) All the target compounds were first evaluated for their antiviral activity against HIV-1 wild-type (WT) strain (IIIB) and the double-mutant strain K103N+Y181C (RES056) in the MT-4 cell line, using the MTT method. The potent inhibitors were selected to assess their efficacy against other strains resistant to NNRTIs, including L100I, K103N, Y181C, Y188L, E138K and the double-mutant strain F227L+V106A. The approved drugs NVP, EFV and ETR were selected as reference drugs. The biological evaluation results of the test compounds, presented as EC50 (anti-HIV potency), CC50 (cytotoxicity) and SI (selectivity index, CC50/EC50 ratio), are summarized in Table 1 and Table 2.
as §4, §5

[5] = test system: HIV-1 K103N mutant strain; experiment: Anti-HIV activity in MT-4 cells (MTT method), K103N; format: cell-based; conditions: Human immunodeficiency virus 1, MT4, read-out: EC50 K103N
Text: as §6, §4, §5

[6] = test system: HIV-1 Y181C mutant strain; experiment: Anti-HIV activity in MT-4 cells (MTT method), Y181C; format: cell-based; conditions: Human immunodeficiency virus 1, MT4, read-out: EC50 Y181C
Text: as §6, §4, §5

[7] = test system: HIV-1 Y188L mutant strain; experiment: Anti-HIV activity in MT-4 cells (MTT method), Y188L; format: cell-based; conditions: Human immunodeficiency virus 1, MT4, read-out: EC50 Y188L
Text: as §6, §4, §5

[8] = test system: HIV-1 E138K mutant strain; experiment: Anti-HIV activity in MT-4 cells (MTT method), E138K; format: cell-based; conditions: Human immunodeficiency virus 1, MT4, read-out: EC50 E138K
Text: as §6, §4, §5

[9] = test system: HIV-1 double-mutant strain F227L+V106A; experiment: Anti-HIV activity in MT-4 cells (MTT method), F227L+V106A; format: cell-based; conditions: Human immunodeficiency virus 1, MT4, read-out: EC50 F227L/V106A
Text: as §6, §4, §5

WT HIV-1 RT = molecular target: T1, WT HIV-1 RT (Human immunodeficiency virus type 1 group M subtype B, UniProt P03366); experiment: HIV-1 RT inhibition assay (Roche kit, ELISA); format: biochemical
T1 construct: viral nucleotides (dNTPs) and the HIV-1 RT enzyme in an incubation buffer; purchased Roche
Text: An assay kit for HIV-1 reverse transcriptase (RT) from Roche was utilized to assess RT inhibition. The kit provided all necessary components for the RT reaction, and the enzyme-linked immunosorbent assay (ELISA) methodology for the inhibition assay was executed according to the kit’s instructions. […] Unbound dNTPs were washed away, and an anti-[…] (DIG)-POD working solution was introduced. […] Excess anti-DIG-POD was removed, and a peroxidase substrate (ABTS) solution was applied to the MTPs. […] The percentage of the inhibitory activity of the RT inhibitors was calculated by formula, as given below:
% Inhibition = [O.D. value with RT but without inhibitors − O.D. value with RT and inhibitors]/[O.D. value with RT […] − O.D. value without RT and inhibitors].

[10] = reduces viability of mock-infected MT-4 cell cultures by 50%, MTT method, read-out: CC50

Row | Structure (SMILES) | EC50 [1] [µM] | SI IIIB [1] | EC50 [2] [µM] | SI RES056 [2] | CC50 at 5 days ([3]; CC50) [µM] | EC50 [4] [µM] | EC50 [5] [µM] | EC50 [6] [µM] | EC50 [7] [µM] | EC50 [8] [µM] | EC50 [9] [µM] | IC50 (WT HIV-1 RT) [µM] | melting point [°C] | CC50 at 5 days [3, 10] [µM]
1 | Cc1cc(C#N)cc(C)c1Oc1nc(Nc2ccc(NC(=O)[C@@H](N)C(C)C)cc2)nc2ccsc12 [5i] | 0.042 ± 0.008 | 157 | ≥ 6.62 | ≤1 | 6.54 ± 1.34 | 1.2 ± 0.218 | 0.045 ± 0.01 | > 6.54 | 6.91 ± 0.944 | 0.247 ± 0.107 | 3.03 ± 1.76 | 1.35 ± 0.148 | 184 to 187 | –
2 | Cc1ccnc2c1NC(=O)c1cccnc1N2C1CC1 [NVP, nevirapine, reference compound] | 0.236 ± 0.114 | – | > 15 | – | – | 1.74 ± 0.879 | 4.09 ± 3.71 | 8.04 ± 1.68 | 9.87 ± 2.47 | 0.181 ± 0.067 | 7.5 ± 2.59 | – | – | > 15
3 | Cc1cc(C#N)cc(C)c1Oc1nc(Nc2ccc(NC(=O)[C@H](N)CC(C)C)cc2)nc2ccsc12 [5n] | 0.062 ± 0.019 | 391 | 5.5 ± 1.36 | 4 | 24.3 ± 4.28 | 2.12 ± 0.455 | 0.131 ± 0.004 | 2.16 ± 0.057 | 2.11 ± 0.288 | 0.231 ± 0.154 | 2.03 ± 1.18 | 2.39 ± 0.086 | – | –
4 | Cc1cc(C#N)cc(C)c1Oc1nc(Nc2ccc(NC(=O)C3CC(O)CN3C(=O)OC(C)(C)C)cc2)nc2ccsc12 (stereo not shown) [5p] | 2.58 ± 0.52 | 9 | – | – | 22.5 ± 0.391 | – | – | – | – | – | – | – | – | –
5 | Cc1cc(C#N)cc(C)c1Oc1nc(Nc2ccc(NC(=O)C3CC(O)CN3)cc2)nc2ccsc12 (stereo not shown) [5l] | 0.059 ± 0.01 | 451 | > 26.8 | <1 | 26.8 ± 1.07 | 1.48 ± 0.545 | 0.072 ± 0.018 | 2.6 ± 0.225 | 2.74 ± 0.103 | 0.314 ± 0.095 | 2.19 ± 0.045 | 1.71 ± 0.298 | – | –
6 | Cc1cc(C#N)cc(C)c1Oc1nc(Nc2ccc(C#N)cc2)nc(N)c1Br [ETR, etravirine, reference compound] | 0.003 ± 0.001 | – | 0.04 ± 0.011 | – | > 4.61 | – | 0.003 ± 0.001 | 0.015 ± 0.005 | 0.021 ± 0.008 | 0.009 ± 0.004 | 0.009 ± 0.004 | – | – | –
7 | O=C1Nc2ccc(Cl)cc2[C@@](C#CC2CC2)(C(F)(F)F)O1 [EFV, efavirenz, reference compound] | 0.006 ± 0.002 | – | 0.698 ± 0.449 | – | – | 0.054 ± 0.036 | 0.132 ± 0.05 | 0.008 ± 0.001 | 0.28 ± 0.091 | 0.01 ± 0.005 | 0.329 ± 0.228 | – | – | > 6.35
8 | Cc1cc(C#N)cc(C)c1Oc1nc(Nc2ccc(NC(=O)C(Cc3c[nH]c4ccccc34)NC(=O)OC(C)(C)C)cc2)nc2ccsc12 (stereo not shown) [5a] | 0.94 ± 0.278 | >197 | > 186 | – | > 186 | – | – | – | – | – | – | – | 205 to 208 | –
9 | Cc1cc(C#N)cc(C)c1Oc1nc(Nc2ccc(NC(=O)[C@@H](CC(C)C)NC(=O)OC(C)(C)C)cc2)nc2ccsc12 [5m] | 9.87 ± 1.18 | >21 | > 208 | – | > 208 | – | – | – | – | – | – | – | – | –
10 | Cc1cc(C#N)cc(C)c1Oc1nc(Nc2ccc(NC(=O)C(N)Cc3c[nH]c4ccccc34)cc2)nc2ccsc12 (stereo not shown) [5b] | 0.089 ± 0.043 | 250 | > 22.4 | <1 | 22.4 ± 0.56 | – | – | – | – | – | – | – | 224 to 227 | –
11 | Cc1cc(C#N)cc(C)c1Oc1nc(Nc2ccc(NC(=O)[C@H](Cc3ccccc3)NC(=O)OC(C)(C)C)cc2)nc2ccsc12 [5d] | 0.771 ± 0.236 | >256 | > 197 | – | > 197 | – | – | – | – | – | – | – | 220 to 222 | –
12 | CNCC(=O)Nc1ccc(Nc2nc(Oc3c(C)cc(C#N)cc3C)c3sccc3n2)cc1 [5j] | 0.242 ± 0.065 | 72 | > 17.3 | <1 | 17.3 ± 11.5 | – | – | – | – | – | – | – | 171 to 173 | –
13 | Cc1cc(C#N)cc(C)c1Oc1nc(Nc2ccc(NC(=O)[C@H](Cc3cn(C(=O)OC(C)(C)C)cn3)NC(=O)OC(C)(C)C)cc2)nc2ccsc12 [5c] | 0.672 ± 0.648 | 29 | > 19.6 | <1 | 19.6 ± 0.72 | – | – | – | – | – | – | – | 236 to 238 | –
14 | Cc1cc(C#N)cc(C)c1Oc1nc(Nc2ccc(NC(=O)[C@@H](NC(=O)OC(C)(C)C)C(C)C)cc2)nc2ccsc12 [5f] | 0.848 ± 0.247 | >251 | > 213 | – | > 213 | – | – | – | – | – | – | – | 158 to 160 | –
15 | Cc1cc(C#N)cc(C)c1Oc1nc(Nc2ccc(NC(=O)CN(C)C(=O)OC(C)(C)C)cc2)nc2ccsc12 [5o] | 0.863 ± 0.253 | 7 | – | – | 5.84 ± 1.18 | – | – | – | – | – | – | – | – | –
16 | Cc1cc(C#N)cc(C)c1Oc1nc(Nc2ccc(NC(=O)C3CCCN3C(=O)OC(C)(C)C)cc2)nc2ccsc12 (stereo not shown) [5g] | 0.924 ± 0.242 | 206 | > 191 | <1 | 191 | – | – | – | – | – | – | – | 236 to 238 | –
